From patent US9862742B2, “Tricyclic nucleosides and oligomeric compounds prepared therefrom” (UNIVERSITAT BERN, priority 2013, dated 2018)
Oligonucleotides are written 5' to 3', each unit as a sugar letter and its base; * is a phosphorothioate linkage, no mark a phosphodiester; rarer units and linkages stand in square brackets, end groups in braces. Plain capitals give the bases only. [6'F-TC-N] = 6'-fluorinated tricyclic nucleoside, subtype b of the publication (N: the base); [F-tcDNA] = 6'-fluoro tricyclic (tricyclo-DNA) nucleoside; [tcDNA-N] = tricyclo-DNA nucleoside (N: the base); [tcDNA] = tricyclo-DNA nucleoside; d = 2'-deoxy (DNA); {P} = phosphate

How the values were obtained:
complementary DNA = assay: Tm study of oligomeric compounds duplexed with complementary DNA (UV melting); assay type: binding; conditions: 1.2 μM, 150 mM NaCl, 10 mM phosphate, 0.1 mM EDTA, pH 7; for ΔTm/mod (° C.) vs DNA: referenced to unmodified DNA or to the fully modified tricyclo-DNA oligomer
Description: (§1) The relative ability of a chemically-modified oligomeric compound to bind to complementary nucleic acid strands, as compared to natural oligonucleotides, is measured by obtaining the melting temperature of a hybridization complex of said chemically-modified oligomeric compound with its complementary unmodified target nucleic acid. The melting temperature (Tm), a characteristic physical property of double helixes, denotes the temperature in degrees centigrade at which 50% helical versus coiled (unhybridized) forms are present. Tm (also commonly referred to as binding affinity) is measured by using the UV spectrum to determine the formation and breakdown (melting) of hybridization. Base stacking, which occurs during hybridization, is accompanied by a reduction in UV absorption (hypochromicity). Consequently a reduction in UV absorption indicates a higher Tm. Following standard automated DNA synthesis protocols oligomeric compounds were prepared comprising one or more tricyclic nucleosides for Tm studies. After cleavage from the solid support, the oligomeric compounds were purified by ion exchange HPLC and analyzed by LCMS using standard procedures. The Tm of the modified 10 mer oligomeric compounds were compared to an unmodified 10 mer DNA oligonucleotide when duplexed to either DNA or RNA. Tm's were determined using a Cary 100 Bio spectrophotometer with the Cary Win UV thermal program was used to measure absorbance vs. temperature. For the Tm experiments, the oligomeric compounds were prepared at a concentration of 1.2 μM in a buffer of 150 mM NaCl, 10 mM phosphate, 0.1 mM EDTA at pH 7. The concentration determined at 85° C. was 1.2 μM after mixing of equal volumes of selected oligomeric compound and complementary RNA or DNA. The oligomeric compounds were hybridized with a complementary RNA or DNA by heating the duplex to 90° C. for 5 minutes and then cooling to room temperature. Tm measurements were taken using a spectrophotometer while the duplex solution was heated in a cuvette at a rate of 0.5° C./min starting at 15° C. until the temperature was 85° C. Tm values were determined using Vant Hoff calculations (A260 vs temperature curve) using non self-complementary sequences where the minimum absorbance related to the duplex and the maximum absorbance related to the non-duplex single strand are manually integrated into the program.

complementary RNA = assay: Tm study of oligomeric compounds duplexed with complementary RNA (UV melting); assay type: binding; conditions: 1.2 μM, 150 mM NaCl, 10 mM phosphate, 0.1 mM EDTA, pH 7; for ΔTm/mod (° C.) vs RNA: referenced to unmodified DNA or to the fully modified tricyclo-DNA oligomer
Description: as §1

[1] = system: exon 23 of the mouse dystrophin gene; assay: Exon 23 skipping in primary mdx cells, gymnotic delivery, RT-PCR/nested PCR and gel electrophoresis; assay type: cell-based; conditions: for exon skipping (exon 23, gel of nested PCR products): 50 μg (approx 9 nmol) oligonucleotide, no transfection agent (gymnosis), harvested 4 days after transfection
Source text: The mdx mouse represents a model for the human genetic disease Duchenne muscular dystrophy. It contains a mutation in exon 23 of the mouse dystrophin gene which gives rise to a premature stop codon. As a consequence no functional dystrophin mRNA and dystrophin protein is produced. It is known in the field (Lu et al., Proc Natl Acad Sci USA 2005, 102, 198-203) that administration of an antisense oligonucleotide designed to bind to the exon/intron junction of exon 23 leads to skipping of exon 23 during mRNA splicing and thus to a functional variant of the mouse dystrophin protein.
To test the exon skipping potential of A20-A23, mdx primary cells (mdx mouse) were transfected without transfection agents (gymnosis) with 50 μg (approx 9 nmol) of each oligonucleotide A20 to A23. Cells were harvested 4 days after transfection and the RNA was extracted. RT-PCR and nested PCR around exon 23 (EX20F/Ex26R) was performed and the products analyzed by gel electrophoresis (FIG. 1).
The slower moving band correspond to nonskipped RNA (including […]) while the faster moving band corresponds to skipped ([…] excluded) RNA.

Substance	ΔTm/mod (° C.) vs DNA (complementary DNA)	ΔTm/mod (° C.) vs RNA (complementary RNA)	other results
01 (AACTGTCACG; unmodified DNA) [compound 01]	0 °C	0 °C	–
02 (AACTGTCACG; sugars from the 5' end d5 [tcDNA]1 d4, all phosphodiester, methylation of C not given here) [compound 02]	+2.1 °C	+0.9 °C	–
03 (dAdAdCdTdG[6'F-TC-T]dCdAdCdG) [compound 03]	+2.0 °C	+0.4 °C	–
04 (dAdAdC[6'F-TC-T]dGdTdCdAdCdG) [compound 04]	+1.6 °C	+0.7 °C	–
05 (dAdAdC[6'F-TC-T]dG[6'F-TC-T]dCdAdCdG) [compound 05]	0 °C	0 °C	–
06 (pA_{a}A_{a}C_{a}T_{a}G_{a}T_{a}C_{a}A_{a}C_{a}G_{a}; fully modified with subtype a nucleosides (not given here), 5'-phosphate, phosphodiester, as printed in the source, key not given here) [compound 06]	0 °C	0 °C	–
07 (pA_{a}A_{a}C_{a}T_{a}G_{a}T_{b}C_{a}A_{a}C_{a}G_{a}; as printed in the source, key not given here) [compound 07]	0 °C	+0.7 °C	–
08 (pA_{a}A_{a}C_{a}T_{b}G_{a}T_{a}C_{a}A_{a}C_{a}G_{a}; as printed in the source, key not given here) [compound 08]	−1.6 °C	+0.3 °C	–
09 (pA_{a}A_{a}C_{a}T_{b}G_{a}T_{b}C_{a}A_{a}C_{a}G_{a}; as printed in the source, key not given here) [compound 09]	−1.8 °C	−0.2 °C	–
10 (AACTGT_{c}CACG; as printed in the source, key not given here) [compound 10]	+1.8 °C	+0.9 °C	–
12 (AACT_{c}GT_{c}CACG; as printed in the source, key not given here) [compound 12]	+1.8 °C	+2.8 °C	–
13 (AACTGT_{d}CACG; as printed in the source, key not given here) [compound 13]	−4.5 °C	−4.7 °C	–
14 (AACT_{d}GTCACG; as printed in the source, key not given here) [compound 14]	−2.7 °C	−2.5 °C	–
15 (AACT_{d}GT_{d}CACG; as printed in the source, key not given here) [compound 15]	−4.3 °C	−3.0 °C	–
16 (GCATTTTTACCG; unmodified DNA) [compound 16]	0 °C	0 °C	–
17 (GCAT_{d}T_{d}T_{d}T_{d}T_{d}ACCG; as printed in the source, key not given here) [compound 17]	-1.1 °C	+0.6 °C	–
SEQ ID NO. 01: unmodified 10 mer DNA oligonucleotide AACTGTCACG, phosphodiester (unmodified DNA) [reference compound]	–	–	Tm duplexed with DNA (complementary DNA): 43.5 °C; Tm duplexed with RNA (complementary RNA): 45.1 °C
SEQ ID NO. 06: pAaAaCaTaGaTaCaAaCaGa, fully modified tricyclo-DNA, 5′-phosphorylated (AACTGTCACG; all [tcDNA-N], all phosphodiester, 5' {P}, methylation of C not given here) [reference compound]	–	–	Tm duplexed with DNA (complementary DNA): 55.0 °C; Tm duplexed with RNA (complementary RNA): 66.2 °C
SEQ ID NO. 07: pAaAaCaTaGaTbCaAaCaGa, tricyclo-DNA backbone with one 6′-fluoro residue, 5′-phosphorylated (AACTGTCACG; sugars from the 5' end [tcDNA]5 [F-tcDNA]1 [tcDNA]4, all phosphodiester, 5' {P}, methylation of C not given here)	–	up to +0.7 °C	–
SEQ ID NO. 16: unmodified oligonucleotide GCATTTTTACCG (unmodified DNA) [reference compound]	–	–	Tm duplexed with DNA (complementary DNA): 45.6 °C; Tm duplexed with RNA (complementary RNA): 42.2 °C
SEQ ID NO. 17: GCATdTdTdTdTdACCG, 5 consecutive arabinofluoro residues (GCATTTTTACCG; listed as DNA, chemistry not fully specified)	–	+0.6 °C	–
SEQ ID NO. 19: pAaAaCaCaTaCaGaGaCaTaTaAaCaCaTa, 15-mer tricyclo-DNA, PS linkages, 5′-phosphate, no fluorine substituents ({P}-[tcDNA-A]*[tcDNA-A]*[tcDNA-C]*[tcDNA-C]*[tcDNA-T]*[tcDNA-C]*[tcDNA-G]*[tcDNA-G]*[tcDNA-C]*[tcDNA-T]*[tcDNA-T]*[tcDNA-A]*[tcDNA-C]*[tcDNA-C]*[tcDNA-T]) [reference compound]	–	–	exon skipping (exon 23, gel of nested PCR products) [1]: substantial exon skipping
SEQ ID NO. 21: pAaAaCbCbTbCbGaGaCbTbTbAaCbCbTb, fluoro-oligonucleotide 15-mer, PS linkages, 5′-phosphate, C is 5-methylcytosine (AACCTCGGCTTACCT; fluoro tricyclo-DNA, PS, 5′-phosphate, 5-methylcytosine; Sequence for biophysical analysis; (1)..(1) tricyclic nucleoside according to fomula I with T1 being phosphate, T2 being phosphorothioate, Bx being adenine and the other substituents being hydrogen; (2)..(2) tricyclic nucleoside according to fomula I with T1 and T2 being phosphorothioate, Bx being adenine and the other substituents being hydrogen; (3)..(3) tricyclic nucleoside according to fomula)	–	–	exon skipping (exon 23, gel of nested PCR products) [1]: substantial exon skipping; exon skipping, qualitative comparison with A21 ([1]; 50 μg, gymnosis, 4 days): slightly superior compared to A21
